This is an account of results in patent US10829501B2 (BRISTOL-MYERS SQUIBB COMPANY, priority 2016, dated 2020).

A word on the IC50: it is the concentration that inhibits the measured activity by half. Low readings indicate inhibition by little substance, high ones a need for much substance.

The experiment addresses ROCK2 (Homo sapiens, UniProt O75116). In words: ROCK2 kinase inhibition assay (LABCHIP 3000 Reader, FITC peptide substrate).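 Also: rho kinase reaction read by separating phosphorylated from unphosphorylated peptide on chip, with inhibition of kinase activity computed per concentration across a dose-response series.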

ROCK2, sequence (O75116 whole entry, species assumed): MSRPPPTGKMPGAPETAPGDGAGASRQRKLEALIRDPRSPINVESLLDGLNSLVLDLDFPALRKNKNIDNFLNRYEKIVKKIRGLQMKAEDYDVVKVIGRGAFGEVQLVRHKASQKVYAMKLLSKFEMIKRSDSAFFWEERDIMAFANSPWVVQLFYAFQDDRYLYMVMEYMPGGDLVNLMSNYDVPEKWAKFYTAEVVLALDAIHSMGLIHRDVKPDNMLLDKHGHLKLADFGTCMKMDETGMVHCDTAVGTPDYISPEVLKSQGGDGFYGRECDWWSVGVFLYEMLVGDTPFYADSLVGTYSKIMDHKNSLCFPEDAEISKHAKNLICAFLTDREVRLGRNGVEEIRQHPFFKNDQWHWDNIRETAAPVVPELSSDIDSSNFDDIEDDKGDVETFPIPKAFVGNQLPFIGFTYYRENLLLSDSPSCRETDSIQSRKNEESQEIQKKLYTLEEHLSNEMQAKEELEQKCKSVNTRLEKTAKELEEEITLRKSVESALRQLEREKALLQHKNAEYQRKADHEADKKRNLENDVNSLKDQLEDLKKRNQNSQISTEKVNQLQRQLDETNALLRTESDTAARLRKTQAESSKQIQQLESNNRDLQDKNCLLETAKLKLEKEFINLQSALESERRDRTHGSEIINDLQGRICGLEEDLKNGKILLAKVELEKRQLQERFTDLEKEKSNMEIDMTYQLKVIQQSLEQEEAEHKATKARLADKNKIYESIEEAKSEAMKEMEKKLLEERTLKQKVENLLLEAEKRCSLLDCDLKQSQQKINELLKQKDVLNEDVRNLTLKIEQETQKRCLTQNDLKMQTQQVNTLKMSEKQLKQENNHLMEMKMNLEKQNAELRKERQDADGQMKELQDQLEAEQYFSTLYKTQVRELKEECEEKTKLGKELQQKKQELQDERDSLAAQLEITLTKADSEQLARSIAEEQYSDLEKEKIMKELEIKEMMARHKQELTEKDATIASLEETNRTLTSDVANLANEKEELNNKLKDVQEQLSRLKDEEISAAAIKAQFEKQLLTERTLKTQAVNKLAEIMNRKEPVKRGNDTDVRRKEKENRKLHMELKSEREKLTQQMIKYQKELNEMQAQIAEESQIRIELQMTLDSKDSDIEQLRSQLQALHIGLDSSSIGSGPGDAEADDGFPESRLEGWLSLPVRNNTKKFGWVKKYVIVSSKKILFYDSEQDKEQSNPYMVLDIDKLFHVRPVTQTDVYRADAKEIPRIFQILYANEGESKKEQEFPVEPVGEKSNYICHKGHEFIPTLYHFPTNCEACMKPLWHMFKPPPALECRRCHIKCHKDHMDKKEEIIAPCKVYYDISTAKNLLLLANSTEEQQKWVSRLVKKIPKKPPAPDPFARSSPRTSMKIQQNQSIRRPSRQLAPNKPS

For the compound `NC(=O)c1cccnc1O[C@H]1CC2(C[C@H](NC(=O)c3cnc4ccc(F)cn34)C2)C1` (stereo partly drawn) [Example 327, N-((aR)-6-((3-carbamoylpyridin-2-yl)oxy)spiro[3.3]heptan-2-yl)-6-fluoroimidazo[1,2-a]pyridine-3-carboxamide], the IC50 fell in the range of 50 to 250 nM.
`CC(O)c1ccn2c(C(=O)N[C@H]3CC4(C3)C[C@H](Oc3ncccc3C(N)=O)C4)cnc2c1` (stereo partly drawn) [Example 328, N-((aR)-6-((3-carbamoylpyridin-2-yl)oxy)spiro[3.3]heptan-2-yl)-7-(1-hydroxyethyl)imidazo[1,2-a]pyridine-3-carboxamide] displayed an IC50 of 50 to 250 nM.
`NC(=O)c1cccnc1O[C@H]1CC2(C[C@H](NC(=O)c3cnc4cc(N5CC[C@@H](F)C5)ccn34)C2)C1` (stereo partly drawn) [Example 329, N-((aR)-6-((3-carbamoylpyridin-2-yl)oxy)spiro[3.3]heptan-2-yl)-7-((R)-3-fluoropyrrolidin-1-yl)imidazo[1,2-a]pyridine-3-carboxamide]: the 50% inhibitory concentration (IC50) was under 5 nM.
Under `C[C@@H](O)COc1ccc2c(C(=O)N[C@H]3CC4(C3)C[C@H](Oc3ncccc3C(N)=O)C4)cnn2c1` (stereo partly drawn) [Example 330, N-((aR)-6-((3-carbamoylpyridin-2-yl)oxy)spiro[3.3]heptan-2-yl)-6-((R)-2-hydroxypropoxy)pyrazolo[1,5-a]pyridine-3-carboxamide] stands 5 to 50 nM; under `NC(=O)c1cccnc1O[C@H]1CC2(C[C@H](NC(=O)c3cnc4cc(OCC(F)F)ccn34)C2)C1` (stereo partly drawn) [Example 331, N-((aR)-6-((3-carbamoylpyridin-2-yl)oxy)spiro[3.3]heptan-2-yl)-7-(2,2-difluoroethoxy)imidazo[1,2-a]pyridine-3-carboxamide], 5 to 50 nM.
Next, `NC(=O)c1cccnc1O[C@H]1CC2(C[C@H](NC(=O)c3cnc4cc(OC(CF)CF)ccn34)C2)C1` (stereo partly drawn) [Example 332, N-((aR)-6-((3-carbamoylpyridin-2-yl)oxy)spiro[3.3]heptan-2-yl)-7-((1,3-difluoropropan-2-yl)oxy)imidazo[1,2-a]pyridine-3-carboxamide]: 5 to 50 nM.
`C[C@H](O)COc1ccc2c(C(=O)N[C@H]3CC4(C3)C[C@H](Oc3ncccc3C(N)=O)C4)cnn2c1` (stereo partly drawn) [Example 333, N-((aR)-6-((3-carbamoylpyridin-2-yl)oxy)spiro[3.3]heptan-2-yl)-6-((S)-2-hydroxypropoxy)pyrazolo[1,5-a]pyridine-3-carboxamide] showed an IC50 of 5 to 50 nM.
Next, `NC(=O)c1cccnc1O[C@H]1CC2(C[C@H](NC(=O)c3cnc4cc(C(F)(F)F)ccn34)C2)C1` (stereo partly drawn) [Example 334, N-((aR)-6-((3-carbamoylpyridin-2-yl)oxy)spiro[3.3]heptan-2-yl)-7-(trifluoromethyl)imidazo[1,2-a]pyridine-3-carboxamide]: 50 to 250 nM; `Cc1ccn2c(C(=O)N[C@H]3CC4(C3)C[C@H](Oc3ncccc3C(N)=O)C4)cnc2c1` (stereo partly drawn) [Example 335, N-((aR)-6-((3-carbamoylpyridin-2-yl)oxy)spiro[3.3]heptan-2-yl)-7-methylimidazo[1,2-a]pyridine-3-carboxamide]: 5 to 50 nM.
Compound `CN1CCN(c2ccn3c(C(=O)N[C@H]4CC5(C4)C[C@H](Oc4ncccc4C(N)=O)C5)cnc3c2)CC1` (stereo partly drawn) [Example 336, N-((aR)-6-((3-carbamoylpyridin-2-yl)oxy)spiro[3.3]heptan-2-yl)-7-(4-methylpiperazin-1-yl)imidazo[1,2-a]pyridine-3-carboxamide] had a half-maximal inhibitory concentration (IC50) of 5 to 50 nM.
Next, `Cn1cc(-c2ccn3c(C(=O)N[C@H]4CC5(C4)C[C@H](Oc4ncccc4C(N)=O)C5)cnc3c2)cn1` (stereo partly drawn) [Example 337, N-((aR)-6-((3-carbamoylpyridin-2-yl)oxy)spiro[3.3]heptan-2-yl)-7-(1-methyl-1H-pyrazol-4-yl)imidazo[1,2-a]pyridine-3-carboxamide]: 5 to 50 nM; `NC(=O)c1cccnc1O[C@H]1CC2(C[C@H](NC(=O)c3cnn4cc(OC5CCC5)ccc34)C2)C1` (stereo partly drawn) [Example 338, N-((aR)-6-((3-carbamoylpyridin-2-yl)oxy)spiro[3.3]heptan-2-yl)-6-cyclobutoxypyrazolo[1,5-a]pyridine-3-carboxamide]: 5 to 50 nM.
Compound `NC(=O)c1cccnc1O[C@H]1CC2(C[C@H](NC(=O)c3cnn4cc(OC5CCS(=O)(=O)CC5)ccc34)C2)C1` (stereo partly drawn) [Example 339, N-((aR)-6-((3-carbamoylpyridin-2-yl)oxy)spiro[3.3]heptan-2-yl)-6-((1,1-dioxidotetrahydro-2H-thiopyran-4-yl)oxy)pyrazolo[1,5-a]pyridine-3-carboxamide] came in with an IC50 of 5 to 50 nM.
Under `NC(=O)c1cccnc1O[C@H]1CC2(C[C@H](NC(=O)c3cnn4c(C5CC5)c(OCCOCC(F)(F)F)ccc34)C2)C1` (stereo partly drawn) [Example 340, N-((aR)-6-((3-carbamoylpyridin-2-yl)oxy)spiro[3.3]heptan-2-yl)-7-cyclopropyl-6-(2-(2,2,2-trifluoroethoxy)ethoxy)pyrazolo[1,5-a]pyridine-3-carboxamide] stands 5 to 50 nM; under `NC(=O)c1cccnc1O[C@H]1CC2(C[C@H](NC(=O)c3cnn4c(C5CC5)c(OC(CF)CF)ccc34)C2)C1` (stereo partly drawn) [Example 341, N-((aR)-6-((3-carbamoylpyridin-2-yl)oxy)spiro[3.3]heptan-2-yl)-7-cyclopropyl-6-((1,3-difluoropropan-2-yl)oxy)pyrazolo[1,5-a]pyridine-3-carboxamide], under 5 nM.
Next, `NC(=O)c1cccnc1O[C@H]1CC2(C[C@H](NC(=O)c3cnn4c(C5CC5)c(OCC5CCCO5)ccc34)C2)C1` (stereo partly drawn) [Example 342, N-((aR)-6-((3-carbamoylpyridin-2-yl)oxy)spiro[3.3]heptan-2-yl)-7-cyclopropyl-6-((tetrahydrofuran-2-yl)methoxy)pyrazolo[1,5-a]pyridine-3-carboxamide]: under 5 nM; `NC(=O)c1cccnc1O[C@H]1CC2(C[C@H](NC(=O)c3cnn4c(C5CC5)c(OC5COC5)ccc34)C2)C1` (stereo partly drawn) [Example 343, N-((aR)-6-((3-carbamoylpyridin-2-yl)oxy)spiro[3.3]heptan-2-yl)-7-cyclopropyl-6-(oxetan-3-yloxy)pyrazolo[1,5-a]pyridine-3-carboxamide]: 5 to 50 nM; `NC(=O)c1cccnc1O[C@H]1CC2(C[C@H](NC(=O)c3cnn4c(C5CC5)c(OCC5CCO5)ccc34)C2)C1` (stereo partly drawn) [Example 344, N-((aR)-6-((3-carbamoylpyridin-2-yl)oxy)spiro[3.3]heptan-2-yl)-7-cyclopropyl-6-(oxetan-2-ylmethoxy)pyrazolo[1,5-a]pyridine-3-carboxamide]: 5 to 50 nM.
The compound `NC(=O)c1cccnc1O[C@H]1CC2(C[C@H](NC(=O)c3cnc4cnccn34)C2)C1` (stereo partly drawn) [Example 345, N-((aR)-6-((3-carbamoylpyridin-2-yl)oxy)spiro[3.3]heptan-2-yl)imidazo[1,2-a]pyrazine-3-carboxamide] yielded an IC50 of 250 to 2500 nM.
Next, `NC(=O)c1cccnc1O[C@H]1CC2(C[C@H](NC(=O)c3cnc4c(C(F)(F)F)cccn34)C2)C1` (stereo partly drawn) [Example 346, N-((aR)-6-((3-carbamoylpyridin-2-yl)oxy)spiro[3.3]heptan-2-yl)-8-(trifluoromethyl)imidazo[1,2-a]pyridine-3-carboxamide]: 50 to 250 nM; `COC(=O)N1CC(Oc2ccc3c(C(=O)N[C@H]4CC5(C4)C[C@H](Oc4ncccc4C(N)=O)C5)cnn3c2)C1` (stereo partly drawn) [Example 347, methyl 3-((3-(((aR)-6-((3-carbamoylpyridin-2-yl)oxy)spiro[3.3]heptan-2-yl)carbamoyl)pyrazolo[1,5-a]pyridin-6-yl)oxy)azetidine-1-carboxylate]: 5 to 50 nM; `COc1ccn2c(C(=O)N[C@H]3CC4(C3)C[C@H](Oc3ncccc3C(N)=O)C4)cnc2c1` (stereo partly drawn) [Example 348, N-((aR)-6-((3-carbamoylpyridin-2-yl)oxy)spiro[3.3]heptan-2-yl)-7-methoxyimidazo[1,2-a]pyridine-3-carboxamide]: 50 to 250 nM.
Regarding `NC(=O)c1cccnc1O[C@H]1CC2(C[C@H](NC(=O)c3cnn4cc(N5CC6(COC6)C5)ccc34)C2)C1` (stereo partly drawn) [Example 349, N-((aR)-6-((3-carbamoylpyridin-2-yl)oxy)spiro[3.3]heptan-2-yl)-6-(2-oxa-6-azaspiro[3.3]heptan-6-yl)pyrazolo[1,5-a]pyridine-3-carboxamide], the 50% inhibitory concentration (IC50) lay in the range of 5 to 50 nM.
`NC(=O)c1cccnc1O[C@H]1CC2(C[C@H](NC(=O)c3cnn4cc(OC5CC(F)(F)C5)ccc34)C2)C1` (stereo partly drawn) [Example 350, N-((aR)-6-((3-carbamoylpyridin-2-yl)oxy)spiro[3.3]heptan-2-yl)-6-(3,3-difluorocyclobutoxy)pyrazolo[1,5-a]pyridine-3-carboxamide] yielded an IC50 of 5 to 50 nM.
Next, `NC(=O)c1cccnc1O[C@H]1CC2(C[C@H](NC(=O)c3cnn4c(C5CC5)c(OC5CCS(=O)(=O)CC5)ccc34)C2)C1` (stereo partly drawn) [Example 351, N-((aR)-6-((3-carbamoylpyridin-2-yl)oxy)spiro[3.3]heptan-2-yl)-7-cyclopropyl-6-((1,1-dioxidotetrahydro-2H-thiopyran-4-yl)oxy)pyrazolo[1,5-a]pyridine-3-carboxamide]: under 5 nM.
Under `CS(=O)(=O)CCCOc1ccc2c(C(=O)N[C@H]3CC4(C3)C[C@H](Oc3ncccc3C(N)=O)C4)cnn2c1C1CC1` (stereo partly drawn) [Example 352, N-((aR)-6-((3-carbamoylpyridin-2-yl)oxy)spiro[3.3]heptan-2-yl)-7-cyclopropyl-6-(3-(methylsulfonyl)propoxy)pyrazolo[1,5-a]pyridine-3-carboxamide] stands 5 to 50 nM.
Take `N#Cc1ccn2c(C(=O)N[C@H]3CC4(C3)C[C@H](Oc3ncccc3C(N)=O)C4)cnc2c1` (stereo partly drawn) [Example 353, N-((aR)-6-((3-carbamoylpyridin-2-yl)oxy)spiro[3.3]heptan-2-yl)-7-cyanoimidazo[1,2-a]pyridine-3-carboxamide]: the IC50 was in the range of 50 to 250 nM.
Next, `N#Cc1cccn2c(C(=O)N[C@H]3CC4(C3)C[C@H](Oc3ncccc3C(N)=O)C4)cnc12` (stereo partly drawn) [Example 354, N-((aR)-6-((3-carbamoylpyridin-2-yl)oxy)spiro[3.3]heptan-2-yl)-8-cyanoimidazo[1,2-a]pyridine-3-carboxamide]: 50 to 250 nM; `NC(=O)c1cccnc1O[C@H]1CC2(C[C@H](NC(=O)c3cnn4cc(N5CC(CO)(CO)C5)ccc34)C2)C1` (some centres unmarked) [Example 355]: 50 to 250 nM.
